US9006221B2, “Method of modulating ship activity” (H. Lee Moffitt Cancer Center and Reserach Institute, Inc., priority 2008, dated 2015)
“Also recorded” adds a separate entry of the source.

What was measured:
[1] = system: priming of allogeneic T cell responses by C57Bl6/J splenocytes; test: One-way mixed leukocyte reaction (MLR), stimulator splenocytes treated in vitro; type: cell-based, mouse; conditions: splenocytes cultured with compound 72 hr, added at 0, 24 and 48 hr
Experimental: Mean proliferation of 100K BALB/C responders as measured by ^3H-Thymidine uptake after exposure to 200K irradiated BL6 stimulators that were treated with the indicated compound, 1×DMSO or 1× EtOH prior to initiation of the mixed leukocyte reaction (MLR). 1×DMSO serves as the allogeneic MLR positive control for all compounds with the exception of HLM85321 for which 1× EtOH is the positive control. [*p<0.05, **p<0.01].
Spleen cells and lymphe node LN cells are normally robust stimulators of allogeneic T cell responses in the one-way mixed leukocyte reaction (MLR) assay, but they are very poor stimulators when obtained from mice with germline or induced SHIP-deficiency. […]
Mixed leukocyte reactions (MLR): Following RBC lysis, irradiated (2000 Rads) BL6 splenocytes (stimulators) at 8×10^5 cells/well were combined with BALB/c splenocytes (responders) at 4×10^5 cells/well in a one-way MLR assay. […] Incorporated [3H]thymidine was quantitated using a Packard TopCount NXT. Specific [3H]thymidine incorporation into genomic DNA was calculated as the average of the mean (±SEM) of sextuplicate wells. […]

SHIP1 = target: T1, SHIP1 (Mus musculus, UniProt Q9ES52); test: Fluorescence polarization (FP) assay of SHIP1 enzymatic activity; type: biochemical; conditions: 0.1 μg of recombinant SHIP1, FP assay
T1 construct: The asterisk in lanes 1 and 3 indicates the ˜145 kD full-length SHIP protein; His tag (C); made in house; host or cells: E. coli Rosetta-Gami 2 (DE3) pLys
T1 sequence (Q9ES52 1-1191): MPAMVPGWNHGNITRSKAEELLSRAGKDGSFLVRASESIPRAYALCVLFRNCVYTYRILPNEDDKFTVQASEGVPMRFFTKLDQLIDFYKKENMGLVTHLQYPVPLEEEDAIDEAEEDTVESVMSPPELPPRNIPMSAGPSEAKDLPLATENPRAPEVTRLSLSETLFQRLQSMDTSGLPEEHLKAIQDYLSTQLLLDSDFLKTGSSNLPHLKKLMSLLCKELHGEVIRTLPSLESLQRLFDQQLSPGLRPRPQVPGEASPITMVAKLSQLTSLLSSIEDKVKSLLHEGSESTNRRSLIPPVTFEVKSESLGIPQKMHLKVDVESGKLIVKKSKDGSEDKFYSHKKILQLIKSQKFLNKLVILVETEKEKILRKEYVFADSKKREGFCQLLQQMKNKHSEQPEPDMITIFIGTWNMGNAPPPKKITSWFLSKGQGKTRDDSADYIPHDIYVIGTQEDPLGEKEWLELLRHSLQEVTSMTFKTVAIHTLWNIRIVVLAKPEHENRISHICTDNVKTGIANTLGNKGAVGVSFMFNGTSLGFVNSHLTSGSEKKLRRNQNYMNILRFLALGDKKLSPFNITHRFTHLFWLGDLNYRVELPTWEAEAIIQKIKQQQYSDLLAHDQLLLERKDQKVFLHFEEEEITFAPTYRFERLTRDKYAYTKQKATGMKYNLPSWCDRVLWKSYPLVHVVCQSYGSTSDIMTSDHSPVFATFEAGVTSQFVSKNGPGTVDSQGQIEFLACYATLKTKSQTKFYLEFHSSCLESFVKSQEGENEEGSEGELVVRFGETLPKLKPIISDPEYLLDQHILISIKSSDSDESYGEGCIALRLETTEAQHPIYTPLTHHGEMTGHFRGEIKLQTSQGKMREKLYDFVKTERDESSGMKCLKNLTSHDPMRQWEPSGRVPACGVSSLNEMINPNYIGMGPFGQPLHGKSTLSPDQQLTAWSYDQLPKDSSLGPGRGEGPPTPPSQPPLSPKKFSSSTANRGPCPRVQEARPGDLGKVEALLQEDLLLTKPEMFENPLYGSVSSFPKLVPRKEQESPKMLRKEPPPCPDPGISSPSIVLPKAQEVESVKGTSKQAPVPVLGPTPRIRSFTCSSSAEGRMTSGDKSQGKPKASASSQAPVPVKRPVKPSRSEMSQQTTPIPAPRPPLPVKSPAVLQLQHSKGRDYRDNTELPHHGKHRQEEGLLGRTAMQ

Row | Compound | ability of splenocytes to prime allogeneic T cell responses by BALB/C responders (3H-thymidine uptake) [1] | inhibition at 10 µM (SHIP1) [%]
1 | OC(c1cc(-c2ccccc2)nc2c1ccc1ccccc12)C1CCCCN1 (centres unmarked) [NSC13480, (2-phenylbenzo[h]quinolin-4-yl)-piperidin-2-ylmethanol] | significantly inhibited; also recorded: complete inability to prime allogeneic T cell responses | 
2 | CC(C)CCC[C@@H](C)[C@H]1CC[C@H]2[C@@H]3CC[C@H]4C[C@H](N)CC[C@]4(C)[C@H]3CC[C@]12C [NSC23922, (3R,5S,8R,9S,10S,13R,14S,17R)-10,13-dimethyl-17-[(2R)-6-methylheptan-2-yl]-2,3,4,5,6,7,8,9,11,12,14,15,16,17-tetradecahydro-1H-cyclopenta[a]phenanthren-3-amine] |  | 50
